Test results reported in ChEMBL document CHEMBL1155915, “Anticonvulsant activity of some xanthone derivatives” (Bioorg Med Chem, 2008).
Calls of active or inactive are those of the source. The rule behind the calls is not given here.

How the values were obtained:
Mus musculus [1] = assay: Anticonvulsant activity against scMet-induced seizures in mouse at 100 mg/kg, ip after 0.5 hrs; format: functional, organism-based; set-up: dose 100 mg/kg
Mus musculus [2] = assay: Neurotoxicity in mouse at 300 mg/kg, ip after 4 hrs by rotarod test; format: toxicity, organism-based; set-up: dose 300 mg/kg, route intraperitoneal; conditions: in vivo
Mus musculus [3] = assay: Anticonvulsant activity against scMet-induced seizures in mouse at 300 mg/kg, ip after 4 hrs; format: functional, organism-based; set-up: dose 300 mg/kg
Mus musculus [4] = assay: Anticonvulsant activity against scMet-induced seizures in mouse at 300 mg/kg, ip after 0.5 hrs; format: functional, organism-based; set-up: dose 300 mg/kg
Mus musculus [5] = assay: Anticonvulsant activity against maximal electroshock-induced seizures in mouse at 30 mg/kg, ip after 4 hrs; format: functional, organism-based; set-up: dose 30 mg/kg
Mus musculus [6] = assay: Neurotoxicity in mouse at 300 mg/kg, ip after 0.5 hrs by rotarod test; format: toxicity, organism-based; set-up: dose 300 mg/kg, route intraperitoneal; conditions: in vivo
Mus musculus [7] = assay: Neurotoxicity in mouse at 30 mg/kg, ip after 4 hrs by rotarod test; format: toxicity, organism-based; set-up: dose 30 mg/kg, route intraperitoneal; conditions: in vivo
Mus musculus [8] = assay: Neurotoxicity in mouse at 100 mg/kg, ip after 4 hrs by rotarod test; format: toxicity, organism-based; set-up: dose 100 mg/kg, route intraperitoneal; conditions: in vivo
Mus musculus [9] = assay: Anticonvulsant activity against scMet-induced seizures in mouse at 30 mg/kg, ip after 4 hrs; format: functional, organism-based; set-up: dose 30 mg/kg
Mus musculus [10] = assay: Anticonvulsant activity against scMet-induced seizures in mouse at 100 mg/kg, ip after 4 hrs; format: functional, organism-based; set-up: dose 100 mg/kg
Mus musculus [11] = assay: Anticonvulsant activity against maximal electroshock-induced seizures in mouse at 100 mg/kg, ip after 0.5 hrs; format: functional, organism-based; set-up: dose 100 mg/kg
Mus musculus [12] = assay: Anticonvulsant activity against maximal electroshock-induced seizures in mouse at 300 mg/kg, ip after 4 hrs; format: functional, organism-based; set-up: dose 300 mg/kg
Mus musculus [13] = assay: Anticonvulsant activity against maximal electroshock-induced seizures in mouse at 30 mg/kg, ip after 0.5 hrs; format: functional, organism-based; set-up: dose 30 mg/kg
Mus musculus [14] = assay: Anticonvulsant activity against scMet-induced seizures in mouse at 30 mg/kg, ip after 0.5 hrs; format: functional, organism-based; set-up: dose 30 mg/kg
Mus musculus [15] = assay: Neurotoxicity in mouse at 100 mg/kg, ip after 0.5 hrs by rotarod test; format: toxicity, organism-based; set-up: dose 100 mg/kg, route intraperitoneal; conditions: in vivo
Mus musculus [16] = assay: Anticonvulsant activity against maximal electroshock-induced seizures in mouse at 300 mg/kg, ip after 0.5 hrs; format: functional, organism-based; set-up: dose 300 mg/kg
Mus musculus [17] = assay: Neurotoxicity in mouse at 30 mg/kg, ip after 0.5 hrs by rotarod test; format: toxicity, organism-based; set-up: dose 30 mg/kg, route intraperitoneal; conditions: in vivo
Mus musculus [18] = assay: Anticonvulsant activity against maximal electroshock-induced seizures in mouse at 100 mg/kg, ip after 4 hrs; format: functional, organism-based; set-up: dose 100 mg/kg

Row | SMILES | Activity (Mus musculus [1]) | Neurotoxicity (Mus musculus [2]) | Activity (Mus musculus [3]) | Activity (Mus musculus [4]) | Activity (Mus musculus [5]) | Neurotoxicity (Mus musculus [6]) | Neurotoxicity (Mus musculus [7]) | Neurotoxicity (Mus musculus [8]) | Activity (Mus musculus [9]) | Activity (Mus musculus [10]) | Activity (Mus musculus [11]) | Activity (Mus musculus [12]) | Activity (Mus musculus [13]) | Activity (Mus musculus [14]) | Neurotoxicity (Mus musculus [15]) | Activity (Mus musculus [16]) | Neurotoxicity (Mus musculus [17]) | Activity (Mus musculus [18])
1 | NC(=O)CNC(=O)c1ccc2oc3ccccc3c(=O)c2c1 | inactive | Not Active | inactive | inactive | inactive | Not Active | Not Active | Not Active | inactive | inactive | inactive | inactive | inactive | inactive | Not Active | inactive | Not Active | inactive
2 | O=c1c2ccc(Cl)cc2oc2ccc(CNCCCCCO)cc12 | inactive |  | inactive | inactive | inactive | Neurotoxic | Not Active | Not Active | inactive | inactive |  | Active | inactive | inactive |  | Active |  | inactive
3 | CC(CO)NC(=O)c1ccc2oc3cc(Cl)ccc3c(=O)c2c1 (racemic) | inactive | Not Active | inactive | inactive | inactive | Not Active | Not Active | Not Active | inactive | inactive | inactive | inactive | inactive | inactive | Not Active | inactive |  | inactive
4 | CC(CCl)N(C)Cc1ccc2oc3cc(Cl)ccc3c(=O)c2c1.Cl (stereo not given) | inactive | Neurotoxic | inactive | inactive | inactive | Neurotoxic | Not Active |  | inactive | inactive |  | inactive | inactive | inactive |  | Active | Not Active | inactive
5 | O=c1c2ccc(Cl)cc2oc2ccc(CNCCO)cc12 | inactive | Not Active | inactive | inactive | inactive |  | Not Active | Not Active | inactive | inactive |  | Active | inactive | inactive |  | Active |  | inactive
6 | O=C(N[C@@H]1CCCC[C@H]1O)c1ccc2oc3ccccc3c(=O)c2c1 (racemic) | inactive | Not Active | inactive | inactive | inactive |  | Not Active | Not Active | inactive | inactive | inactive | inactive | inactive | inactive | Not Active | inactive | Not Active | 
7 | C[C@@H](O)CNCc1ccc2oc3cc(Cl)ccc3c(=O)c2c1 | inactive | Neurotoxic | inactive | inactive | Active | Neurotoxic |  |  | inactive | inactive | Active | inactive | inactive | inactive |  | Active |  | Active
8 | C[C@@H](CO)N(C)Cc1ccc2oc3cc(Cl)ccc3c(=O)c2c1 | inactive | Neurotoxic | inactive | inactive | inactive | Neurotoxic |  | Not Active | inactive | inactive | Active | Active | inactive | inactive |  | Active |  | 
9 | O=C(NCCCCO)c1ccc2oc3ccccc3c(=O)c2c1 | inactive | Not Active | inactive | inactive | inactive | Not Active | Not Active | Not Active | inactive | inactive | inactive | inactive | inactive | inactive | Not Active | inactive | Not Active | inactive
10 | CCOC(=O)CNC(=O)c1ccc2oc3ccccc3c(=O)c2c1 | inactive | Not Active | inactive | inactive | inactive | Not Active | Not Active | Not Active | inactive | inactive | inactive | inactive | inactive | inactive | Not Active | inactive | Not Active | inactive
11 | C[C@H](O)CNCc1ccc2oc3cc(Cl)ccc3c(=O)c2c1 | inactive |  | inactive | inactive | Active |  | Not Active | Not Active | inactive | inactive | Active | inactive | inactive | inactive |  | Active | Not Active | Active
12 | CC[C@H](CO)NCc1ccc2oc3cc(Cl)ccc3c(=O)c2c1 | inactive |  | inactive | inactive | inactive | Neurotoxic | Not Active |  | inactive | inactive |  | Active | inactive | inactive |  | Active | Not Active | inactive
13 | CC(CO)NC(=O)c1ccc2oc3ccccc3c(=O)c2c1 (stereo not given) | inactive | Not Active | inactive | inactive | inactive | Not Active | Not Active | Not Active | inactive | inactive | inactive | inactive | inactive | inactive | Not Active | inactive | Not Active | inactive
14 | CN(CCO)Cc1ccc2oc3cc(Cl)ccc3c(=O)c2c1 | inactive | Neurotoxic | inactive | inactive | inactive | Neurotoxic | Not Active | Not Active | inactive | inactive |  |  | inactive | inactive |  | inactive | Not Active | inactive
